Measurements from patent US11504362B2, “Liquid dosage forms to treat cancer” (Exelixis, Inc., priority 2017, dated 2022).
Entries after “also recorded” stand apart in the source; their conditions may differ. Like-named read-outs stand apart in the source and are kept apart here.

Assays:
[1] = male, human, in vivo
Procedure: (§1) Pharmacokinetics: Serial blood, urine, and feces were collected at specified times following dosing.
(§2) All samples collected for radioactivity analysis were analyzed for total radioactivity.
Blood samples (4 mL) for whole blood analysis of total radioactivity were collected within 15 minutes pre-dose and at 1, 2, 4, 8, 14, 24, and 72 hours post-dose. Prior to study initiation, the Celerion Scintillation Laboratory supplied to the Celerion clinic complete written instructions for collection, handling, and processing of samples. Samples collected were used to determine the percentage of radioactivity associated with erythrocytes in whole blood over time (calculated only for time points that whole blood was collected).
Individual dosing containers (including the dosage form) were analyzed pre-dose and post-dose for radioactivity, with the (post-dose−pre-dose) difference being the administered dose. Whole blood, plasma, urine, feces, and emesis (if applicable) were analyzed for radioactivity content by liquid scintillation counting procedures. Whole blood and fecal samples were dried and oxidized prior to counting. Detailed reports of scintillation counting method and results for total radioactivity accompany the clinical study report. […]
The Cmax and time to peak concentration (tmax) were directly determined from the observed blood/plasma concentrations data. […]

[2] = Plasma pharmacokinetics of XL184 and metabolites by LC/MS/MS method; details: human, in vivo
Procedure: as §1, §2
Detailed reports of the bioanalytical methodologies and results accompany the clinical study report.
The other minor metabolite in plasma, p-Fluoroaniline, was analyzed by Exelixis using a validated LC/MS/MS method.
PK variables were computed using WinNonlin Professional, version 5.2.

[3] = Safety evaluation (AEs, vital signs, ECG, laboratory tests) in Phase 1 mass balance study; format: in vivo, human
Procedure: Safety: Safety evaluations included assessments of AEs, vital signs, electrocardiogram (ECG), laboratory tests, and concomitant medications. Adverse event seriousness, severity grade, and relationship to study treatment were assessed by the investigator. Severity grade was defined by the National Cancer Institute Common Terminology Criteria for Adverse Events (CTCAE) version 4.0.
Adverse event terms were standardized using the Medical Dictionary for Regulatory Activities and tabulated by system organ class and preferred term.

[4] = cited from earlier work; for CL/F / t1/2 / Tmax / Cmax: single oral 140 mg FBE; for CL/F / t1/2 / Cmax: mean ± CV %; for Tmax: median (minimum, maximum); for Cmax: plasma, n = 72
[5] = test system: RET; details: administration to mice; Yakes, et al. 2011; cited from earlier work
[6] = po, 175 mg, Plasma concentration of XL184 by LC/MS/MS, single 175 mg oral XL184 L-malate, healthy male subjects, […], individual subject

Structure (SMILES): COc1cc2nccc(Oc3ccc(NC(=O)C4(C(=O)Nc5ccc(F)cc5)CC4)cc3)c2cc1OC [XL184, N-(4-{[6,7-bis(methyloxy)quinolin-4-yl]oxy}phenyl)-N′-(4-fluorophenyl)cyclopropane-1,1-dicarboxamide]
- kel of total radioactivity [1]: 0.00308 h⁻¹
- concentration at 8 h ([2]; po, 175 mg, Plasma Concentrations of XL184 by LC/MS/MS Method, single 175 mg oral dose, Min (N=8)): 267 ng/mL
- concentration at 8 h ([2]; po, 175 mg, Plasma Concentrations of XL184 by LC/MS/MS Method, single 175 mg oral dose, individual subjects): 532 ng/mL
- concentration at 14 h ([2]; po, 175 mg, Plasma Concentrations of XL184 by LC/MS/MS Method, 14.00 h, single 175 mg oral dose, individual subjects): 488 ng/mL
- concentration at 48 h [2, 6]: 352 ng/mL
- concentration at 120 h [2, 6]: 156 ng/mL
- AUC0-24 ([2]; male): 14300 ± 2600 (18) h · ng/mL
- AUC0-72 ([2]; male): 35000 ± 6770 (19) h · ng/mL
- AUC0-inf ([2]; male): 68000 ± 6910 (10) h · ng/mL
- AUC0-t ([2]; male): 67200 ± 6880 (10) h · ng/mL
- Tmax ([2]; male): 1.49 (1.00, 3.00) h
- Tmax ([2]; male, Tmax): ~1.49 h
- AUC0-t ([2]; male, po, 175 mg, AUC0-24): 17600 ng·h/mL
- AUC0-t ([2]; male, po, 175 mg, AUC0-72): 46800 ng·h/mL
- AUC0-inf ([2]; male, po, 175 mg, AUC0-inf): 73100 ng·h/mL
- AUC0-t ([2]; male, po, 175 mg, AUC0-t): 72900 ng·h/mL
- Cmax ([2]; male, po, 175 mg, Cmax): 1250 ng/mL
- half-life ([2]; male, po, 175 mg, t1/2): 69 h
- Total number of TEAEs ([3]; 8 subjects): 36
- TEAEs resolved within 1 to 3 days ([3]; 31/36): 86%
- Severity of one event of treatment related dizziness ([3]; CTCAE version 4.0): moderate (CTCAE grade 2)
- Severity of the majority of TEAEs ([3]; CTCAE version 4.0): mild in severity (CTCAE grade 1)
- Laboratory values ([3]; changes from baseline): no clinically significant changes from baseline in any laboratory values; also recorded: no notable clinical laboratory findings
- Subjects reporting TEAEs assessed as related to the study treatment ([3]; five subjects): 62.5%
- Vital signs and ECG evaluations ([3]; in vivo): No remarkable on study results were noted
- Tolerability ([3]; single 175 mg oral dose): well tolerated
- Deaths, SAEs, discontinuations due to AEs, other significant AEs ([3]; single 175 mg oral dose, 8 healthy male subjects): no deaths, other SAEs, discontinuations due to AEs, or other significant AEs
- Subjects reporting TEAEs ([3]; six of 8 subjects): 75%
- Subjects reporting flatulence ([3]; three subjects): 37.5%
- Subjects reporting headache ([3]; three subjects): 37.5%
- Vomiting after dosing ([3]; within 4 hours of dosing): No subject vomited within 4 hours of dosing
- % CV of Cmax, AUC0-t, and AUC0-inf ([4]; 20 mg (FBE) tablet strength): 48-72%
- % CV of Cmax, AUC0-t, and AUC0-inf ([4]; 40 mg (FBE) tablet strength): 42-56%
- % CV of Cmax, AUC0-t, and AUC0-inf ([4]; 60 mg (FBE) tablet strength): 38-41%
- % CV of AUC0-inf ([4]; 140 mg (FBE) capsule): ~39%
- % CV of AUC0-t ([4]; 140 mg (FBE) capsule): ~37%
- % CV of Cmax ([4]; 140 mg (FBE) capsule): ~43%
- % CV of AUC0-inf ([4]; 140 mg (FBE) tablet): ~46%
- % CV of AUC0-t ([4]; 140 mg (FBE) tablet): ~44%
- % CV of Cmax ([4]; 140 mg (FBE) tablet): about 54%
- CL/F ([4]; capsule formulation): 2.69 ± 32 L/h
- t1/2 ([4]; capsule formulation): 112 ± 26 h
- Tmax ([4]; capsule formulation): 4.00 (2.00, 5.04) h
- Cmax ([4]; capsule formulation): 554 ± 43 ng/mL
- CL/F ([4]; tablet formulation): 2.61 ± 49 L/h
- t1/2 ([4]; tablet formulation): 115 ± 31 h
- Tmax ([4]; tablet formulation): 3.49 (1.99, 24.00) h
- Cmax ([4]; tablet formulation): 702 ± 54 ng/mL
- Inhibition of RET in vivo [5]: dose-dependent inhibition
